Results reported in publication PMC12321279, “Novel 4,5‐Dihydrothiazole‐Phenylpiperazine Derivatives: Synthesis, Docking Studies and Pharmacological Evaluation as Serotonergic Agents” (Chemmedchem, 2025).
Like-named read-outs stand apart in the source and are kept apart here.

Columns and labels:
5‐HT1A receptor = target: T1, 5‐HT1A receptor (Rattus norvegicus, UniProt P19327); experiment: 5‐HT1A competition binding assay ([3H]8‐OH‐DPAT, hippocampal membranes); settings: 1 nM [3H]8‐OH‐DPAT
T1 construct: 80 μg of hippocampal membrane suspension (the 5‐HT1A assay); from tissue; host or cells: rat (Sprague-Dawley) hippocampus membranes
T1 sequence (P19327 1-422): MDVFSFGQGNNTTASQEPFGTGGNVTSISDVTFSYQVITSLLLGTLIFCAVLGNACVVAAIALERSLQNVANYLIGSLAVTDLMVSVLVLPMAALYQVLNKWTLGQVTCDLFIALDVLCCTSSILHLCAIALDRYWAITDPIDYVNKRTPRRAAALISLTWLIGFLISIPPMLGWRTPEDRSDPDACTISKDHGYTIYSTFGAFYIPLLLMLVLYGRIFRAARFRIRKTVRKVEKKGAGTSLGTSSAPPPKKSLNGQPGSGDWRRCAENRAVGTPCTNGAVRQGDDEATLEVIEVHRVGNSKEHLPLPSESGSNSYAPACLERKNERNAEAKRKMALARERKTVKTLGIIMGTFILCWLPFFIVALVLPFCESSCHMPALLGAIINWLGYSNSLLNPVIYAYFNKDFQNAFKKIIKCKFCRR
Procedure: (§1) Sprague‐Dawley rats were sacrificed by isoflurane overdose. Brains were rapidly removed and placed on ice. Hippocampi (for the 5‐HT1A assay) and frontal cortices (for the 5‐HT2A and 5‐HT2C assays) were dissected on a Petri dish. The tissue from 10 rats was homogenized in 30 vol. homogenization buffer (50 mM Tris–HCl, […], 1 mM EDTA, 1 mM dithiothreitol) with a handheld Teflon‐glass homogenizer. The homogenate was centrifuged at 48,000 × g at 4 °C for 15 min. The pellet was suspended and homogenized in the homogenization buffer and incubated for 10 min. at 36 °C. The centrifugation and suspension steps were repeated twice. The final pellet was homogenized in 5 vol. 50 mM Tris–HCl, pH = 7.4 buffer and stored at −80 °C for no longer than 6 months. […] For the 5‐HT2C assay, compounds were incubated in duplicate with 5 nM [^3H]mesulergine (specific activity: 80.2 Ci mmol^−1, Revvity, MA, USA) for 60 min. at 36 °C in a 50 mM Tris‐HCl (pH 7.4) buffer, supplemented with 5 mM MgCl2, 140 mM NaCl, 1 mM DTT, 1 mM CaCl2, 10 μM pargyline and 160μg of the frontal cortex membrane suspension. Non‐specific binding was determined with 10μM serotonin. The final DMSO concentration in the assay was 5%. After incubation, the reaction mixture was deposited onto Unifilter GF/C plates (Revvity, MA, USA) presoaked in 0.4% PEI (or 0.4% PEI and 0.5% Triton X‐100 for the 5‐HT2C assay) for 1 h with the FilterMate‐96 Harvester (Revvity, MA, USA). Then, each well was washed with 2 mL of 50 mM Tris–HCl (pH 7.4) buffer to separate bound ligands from free and the plates were left to dry overnight. Then, 35μl of Microscint‐20 scintillation fluid (Revvity, MA, USA) was added to each filter well and left to equilibrate for 2h. Filter‐bound radioactivity was counted in a MicroBeta2 LumiJet scintillation counter (Revvity, MA, USA). Binding curves were fitted with one site non‐linear regression. Binding affinity (pKi and Ki) for each compound was calculated from the […] values with the Cheng‐Prusoff equation from two separate experiments.

5‐HT2C receptor = target: T2, 5‐HT2C receptor (Rattus norvegicus, UniProt P08909); experiment: 5‐HT2C competition binding assay ([3H]mesulergine, frontal cortex membranes); settings: 5 nM [3H]mesulergine
T2 construct: 10 μM pargyline and 160μg of the frontal cortex membrane suspension; from tissue; host or cells: rat (Sprague-Dawley) frontal cortex membranes
T2 sequence (P08909 33-460): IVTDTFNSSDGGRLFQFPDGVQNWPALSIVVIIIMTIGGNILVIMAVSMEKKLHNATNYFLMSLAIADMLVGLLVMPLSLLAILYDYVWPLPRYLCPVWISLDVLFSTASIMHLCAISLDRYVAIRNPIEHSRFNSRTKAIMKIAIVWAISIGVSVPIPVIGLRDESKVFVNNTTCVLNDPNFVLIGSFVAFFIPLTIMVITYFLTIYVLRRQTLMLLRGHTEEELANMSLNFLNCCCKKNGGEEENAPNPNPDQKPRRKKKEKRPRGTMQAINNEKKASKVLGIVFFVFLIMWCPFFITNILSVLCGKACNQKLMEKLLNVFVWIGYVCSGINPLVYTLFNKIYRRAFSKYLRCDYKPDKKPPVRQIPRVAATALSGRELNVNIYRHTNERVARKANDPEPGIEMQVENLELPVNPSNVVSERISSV
Procedure: as §1

5‐HT2A receptor = 5‐HT2A receptor (Rattus norvegicus, UniProt P14842); experiment: 5‐HT2A competition binding assay ([3H]ketanserin, frontal cortex membranes); parameters: from tissue; host or cells: rat (Sprague-Dawley) frontal cortex membranes; settings: 1 nM [3H]ketanserin
Chain of 5‐HT2A receptor (P14842 whole entry): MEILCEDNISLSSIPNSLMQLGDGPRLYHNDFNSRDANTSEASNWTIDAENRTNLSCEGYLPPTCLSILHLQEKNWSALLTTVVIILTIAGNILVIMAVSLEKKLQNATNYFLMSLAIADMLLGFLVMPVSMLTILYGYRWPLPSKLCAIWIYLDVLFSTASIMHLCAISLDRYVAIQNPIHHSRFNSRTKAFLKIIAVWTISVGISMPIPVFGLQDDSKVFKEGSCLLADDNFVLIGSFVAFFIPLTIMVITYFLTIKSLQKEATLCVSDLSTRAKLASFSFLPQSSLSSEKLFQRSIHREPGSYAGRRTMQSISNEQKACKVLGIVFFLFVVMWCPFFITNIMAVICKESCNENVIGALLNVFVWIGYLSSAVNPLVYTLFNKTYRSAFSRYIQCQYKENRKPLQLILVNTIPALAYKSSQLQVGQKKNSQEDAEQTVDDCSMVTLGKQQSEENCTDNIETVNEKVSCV

[1] = 95% CI in brackets, read-out: 5‐HT1A Ki (95% CI)
[2] = 95% CI in brackets, read-out: 5‐HT2C Ki (95% CI)
[3] = 95% CI in brackets, read-out: 5‐HT2A Ki (95% CI)
[4] = read-out: 5‐HT2C pKi (converted)
[5] = read-out: 5‐HT2A pKi (converted)
[6] = read-out: 5‐HT1A pKi (converted)

SMILES | Ki (5‐HT1A receptor; [1]) [nM] | Ki (5‐HT2C receptor; [2]) [nM] | Ki (5‐HT2A receptor; [3]) [nM] | Ki (5‐HT2C receptor; [4]) [nM] | Ki (5‐HT2A receptor; [5]) [nM] | Ki (5‐HT1A receptor; [6]) [nM]
O=C(NCCCN1CCN(c2ccccc2C2=NCCS2)CC1)c1ccccn1 [FG‐1, N‐(3‐(4‐(2‐(4,5‐dihydrothiazol‐2‐yl) phenyl) piperazin‐1‐yl) propyl) picolinamide] | 2350 | 6860 | 3130 |  |  | 
O=C(NCCCN1CCN(c2cccc(C3=NCCS3)c2)CC1)c1ccccn1 [FG‐2, N‐(3‐(4‐(3‐(4,5‐dihydrothiazol‐2‐yl) phenyl) piperazin‐1‐yl) propyl) picolinamide] | 1860 | 816 | 2900 | 832 | 2950 | 
O=C(NCCCN1CCN(c2ccccc2C2=NCCS2)CC1)c1ccncc1 [FG‐4, N‐(3‐(4‐(2‐(4,5‐dihydrothiazol‐2‐yl) phenyl) piperazin‐1‐yl) propyl) isonicotinamide] | 1540 | 7280 | 4700 |  |  | 
O=C(NCCCN1CCN(c2cccc(C3=NCCS3)c2)CC1)c1ccncc1 [FG‐5, N‐(3‐(4‐(3‐(4,5‐dihydrothiazol‐2‐yl) phenyl) piperazin‐1‐yl) propyl) isonicotinamide] | 1100 | 12500 | 4430 |  |  | 
O=C(NCCCN1CCN(c2ccc(C3=NCCS3)cc2)CC1)c1ccncc1 [FG‐6, N‐(3‐(4‐(4‐(4,5‐dihydrothiazol‐2‐yl) phenyl) piperazin‐1‐yl) propyl) isonicotinamide] |  | 2210 | 4600 | 2240 |  | 26300
O=C1C2C3C=CC(C3)C2C(=O)N1OCCCN1CCN(c2ccccc2C2=NCCS2)CC1 (stereo not drawn) [FG‐7, 2‐(3‐(4‐(2‐(4,5‐dihydrothiazol‐2‐yl) phenyl) piperazin‐1‐yl) propoxy)‐3a,4,7,7a‐tetrahydro‐1 H‐4,7‐methanoisoindole‐1,3(2 H)‐dione] | 54 | 80800 | 2860 |  |  | 
O=C1C2C3C=CC(C3)C2C(=O)N1OCCCN1CCN(c2cccc(C3=NCCS3)c2)CC1 (stereo not drawn) [FG‐8, 2‐(3‐(4‐(3‐(4,5‐dihydrothiazol‐2‐yl) phenyl) piperazin‐1‐yl) propoxy)‐3a,4,7,7a‐tetrahydro‐1H‐4,7‐methanoisoindole‐1,3(2H)‐dione] | 710 | 46 | 1100 | 46.8 | 1150 | 724
O=C(NCCCN1CCN(c2ccc(C3=NCCS3)cc2)CC1)C1CC2C=CC1C2 (stereo not drawn) [FG‐18, Endo‐ N‐(3‐(4‐(4‐(4,5‐dihydrothiazol‐2‐yl)phenyl)piperazin‐1‐yl)propyl) bicyclo[2.2.1]hept‐5‐ene‐2‐carboxamide] |  | 17 | 2730 |  |  | 20000
